In patent publication US4137380A, “Polyester granules and process” (priority 1972, dated 1979):
Read-outs that look alike come from different tables or passages of the source.

What was measured:
[1] = Relative water solubility of amine; conditions: amine base
[2] = Dissociation constant in water (pKa value) of amine; type: physicochemical
Source text: If more than one type of amine group is present in the molecule then the relevant pKa value is that of the most basic amine group.

[3] = amine base, in water, read-out: pKa

| Molecule | Rel. W. Sol [1] | pKa [2, 3] | pKa ([2]; water) |
| --- | --- | --- | --- |
| CCN [ethylamine] | high |  |  |
| C=C(C)C(=O)OCCN(C)C [DMAEMA, dimethylaminoethylmethacrylate] | high | 5.4 |  |
| vinyl pyridine |  |  | 5.4 |
| Nc1ccccc1 [aniline] | insoluble |  |  |
| NCCN [ethylene diamine] | high |  |  |
| NCCCCCCCCCCCCN [dodecylene diamine] | insoluble |  | 11.8 |
| Cc1ccccc1N [o-toluidine] | insoluble | 6 |  |
